Test results reported in patent US6660772B2, “Use of 2-amino-1-(4-hydroxy-2-methanesulfonamidophenyl)ethanol for treating urinary incontinence” (Boehringer Ingelheim Pharma KG, priority 2001, dated 2003).

Test system: dog
Assay: Activity (maximum contraction) in the dog compared with noradrenaline
Conditions: percentage of contraction compared with noradrenaline
Protocol: The efficacy and selectivity of the compound according to the invention is determined as follows, using the same findings as described in 1:
Maximum contraction in the dog and activity on human urethra are percentages of contraction compared with noradrenaline. Selectivity in the dog is the difference obtained from the percentage contraction of the dog's femoral artery at 10^−5 M and percentage contraction of the carotid artery in the dog at 10^−5 M.

Row | SMILES | Activity in the Dog (maximum contraction) [%]
1 | CS(=O)(=O)Nc1cc(C(O)CN)ccc1O (centres unmarked) [Compound 1, 2-amino-1-(4-hydroxy-3-methanesulfonamidophenyl)ethanol] | 103
2 | CS(=O)(=O)Nc1ccc(F)c([C@@H](O)CN)c1 [Compound 2, (−)-R-2-Amino-1-(2-fluoro-5-methanesulfonamidophenyl)ethanol] | 79
